# Columns and labels:
# [1] = tested on: HepG2, NH/3T3, PC-3, MCF-7 cell lines; experiment: MTT assay, summary over the cell line panel; assay type: cell-based; settings: across tested cell lines
# Description: (§1) The human cancer cell lines e.g. HepG2 (hepatocellular carcinoma, ATCC® HB-8065™), PC-3 (human prostate cancer cells, ATCC® CRL-1435™), MCF-7 (breast adenocarcinoma, ATCC® […]), and mouse embryo fibroblasts (NIH/3T3, ATCC® CRL-1658™), used in the present study were obtained from the ATCC (American Type Culture Collection, USA and maintained in RPMI 1640 (Roswell Park Memorial Institute, Merck) with 10% FBS (Merck), supplemented with 1% antibiotic and antimycotic solution (Gibco, USA) at 37° C. in a humidified incubator with 5% CO2. All stock solutions of the compounds were prepared in cell culture grade DMSO (dimethyl sulfoxide) and stored at −20° C. Compounds were diluted in culture media prior to use in experiments. Annexin V-FITC apoptosis detection kits were purchased from Calbiochem. MTT dye was procured from Sigma-Aldrich. All the flow cytometry experiments were performed using a FACScan (Becton Dickinson, Mountain View, Calif.) flow cytometer, equipped with a single 488 nm argon laser.
# (§2) Cell viability was assessed by MTT assay, which is based on the reduction of MTT by mitochondrial dehydrogenases of viable cells to form a purple formazan product. Briefly, cells (5-6×10^3/well) were plated in 96 well plates. After incubating overnight, the cells were treated with […] different concentrations (100, 50, 20, 10, 5, 2.5, 1.25 μM) in triplicates with the cationic lipidated cordiarimide and intermediates for 48 h. Subsequently, 10 μL of MTT (10 mg/mL) was added to each well and incubated for 3 h. The MTT formazan formed by viable cells was dissolved in 100 μL of DMSO and shaken for 10 min. The absorbance was measured on an ELISA reader. Each test was repeated at least three times. The concentration of the compound which gives the 50% growth inhibition value corresponding to IC50, was calculated using GraphPad prism 5 software. In the present invention we have screened 26 lipidated cordiarimides and the results are described in table 1.
# T4 DNA ligase = biological target: T1, T4 DNA ligase (Enterobacteria phage T4, UniProt P00970); experiment: Ligation assay, T4 DNA ligase control; assay type: biochemical; settings: 5 μM
# T1 sequence (P00970 1-487): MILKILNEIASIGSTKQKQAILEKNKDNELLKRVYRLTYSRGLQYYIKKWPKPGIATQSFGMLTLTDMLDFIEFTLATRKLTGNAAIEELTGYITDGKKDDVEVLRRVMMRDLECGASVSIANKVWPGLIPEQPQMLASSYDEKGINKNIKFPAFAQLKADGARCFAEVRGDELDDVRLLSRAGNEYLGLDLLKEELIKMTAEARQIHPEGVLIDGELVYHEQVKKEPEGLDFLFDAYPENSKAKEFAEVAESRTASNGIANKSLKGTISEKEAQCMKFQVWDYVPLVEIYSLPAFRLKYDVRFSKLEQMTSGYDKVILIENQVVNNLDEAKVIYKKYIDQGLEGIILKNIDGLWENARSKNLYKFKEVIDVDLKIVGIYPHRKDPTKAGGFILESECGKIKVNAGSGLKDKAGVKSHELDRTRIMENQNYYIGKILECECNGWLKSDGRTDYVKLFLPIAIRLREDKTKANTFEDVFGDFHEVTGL
# Description: The ligation assay was done strictly following the assay protocol described in Xi Chen et. al, Cancer Res 2008; 68(9):3169-3177. The DNA molecules 52 mer (5′-3′), 28-mer (5′-3′) and 34-mer (5′-3′) were used to construct a double stranded nicked substrate for the ligase enzyme (FIG. 4). The 34-mer oligo was labelled with 32P-AMP to form a substrate for ligase and to form a ligase-AMP intermediate. During ligation, the ligase would transfer the AMP to the nick forming a phosphodiester bond and seal the nick. The ligated DNA molecule would be larger in size and run higher up on a 7% Urea-containing denaturing acrylamide gel. If an inhibitor is added to the reaction mixture prior to the addition of ligase, this would lead to an inhibition of ligation and a corresponding loss of labelled ligated product in the gel. We would then be able to calculate the percentage of inhibition of ligation by estimating the amount of ligated product in the lane with no inhibitor and comparing it with the lanes containing different inhibitor molecules or with the same inhibitor molecule at different concentrations.
# [2] = tested on: MCF-7 (breast adenocarcinoma); experiment: MTT assay for cell viability, MCF-7; assay type: cell-based, human
# Description: as §1, §2
compound,measurement,setting,value
"CCCCCCCCCCCC[N+](C)(CCCCCCCCCCCC)CC(=O)NC1CCC(=O)N(CC(=O)c2ccccc2)C1=O (stereo not shown) [Compound 8k, {[2,6-Dioxo-1-(2-oxo-2-phenyl-ethyl)-piperidin-3-ylcarbamoyl]-methyl}-Didodecyl-methyl-ammonium iodide]",antiproliferative / anticancer activity (in words),[1],selective anti-proliferative activity at lower concentrations
same,inhibition of T4 ligase,T4 DNA ligase,No appreciable inhibition
same,IC50,[2]; 48 h,> 20 µM
same,IC50,"[2]; Homo sapiens, MCF7, 48 h",26.3 µM
